These results are taken from paper PMC7449170, “ATI-2173, a Novel Liver-Targeted Non-Chain-Terminating Nucleotide for Hepatitis B Virus Cure Regimens” (Antimicrobial Agents and Chemotherapy, 2020).

The test system of one series is HBV rtL180M+M204V. Put plainly: microbe, parasite or virus in culture. In kind it is cell-based. The note with it: Hepatitis B virus, HepG2.
In series [1] the test system is HBV genotype G (AB064315). As to the kind of experiment: microbe, parasite or virus in culture. In kind it is cell-based. The note with it: Hepatitis B virus, HepG2.
Series [2] deals with HBV genotype F (HE974369). As to the kind of experiment: microbe, parasite or virus in culture. The series is classed as cell-based. The note with it: Hepatitis B virus, HepG2.
Series [3] can be described thus: Hepatic extraction in portal vein cannulated monkeys. The note with it: cynomolgus monkeys with portal vein cannulation, single oral 20 mg/kg and intravenous 2 mg/kg, data not shown. In kind it is in vivo.
Another series has as its system HBV rtS202G+M204I+M250V. As to the kind of experiment: microbe, parasite or virus in culture. Particulars: Hepatitis B virus, HepG2. The series is classed as cell-based.
A further series concerns HBV coreP25A. Put plainly: microbe, parasite or virus in culture. In kind it is cell-based, Hepatitis B virus. Particulars: Hepatitis B virus, HepG2.
Series [4] deals with HBV genotype C (AB246345). Put plainly: microbe, parasite or virus in culture. The series is classed as cell-based. The note with it: Hepatitis B virus, HepG2.
In another series the test system is HBV rtN236T. As to the kind of experiment: microbe, parasite or virus in culture. In kind it is cell-based. The note with it: Hepatitis B virus, HepG2.
The test system of the next series is hepatitis C virus. Put plainly: Antiviral panel: hepatitis C virus. The series is classed as cell-based. The note with it: up to 100 μM, data not shown.
Another series concerns HBV wild type (U95551). As to the kind of experiment: Cross-resistance in transfected HepG2 cells, wild type. Particulars: Hepatitis B virus. In kind it is cell-based, Hepatitis B virus.
Series [5] in a line: Pharmacokinetics and tissue concentration in rats after single oral dose. In kind it is in vivo, Sprague-Dawley rats. Particulars: single oral 50 mg/kg ATI-2173 vs 25 mg/kg clevudine. Here is the method: Female Sprague Dawley (SD) rats (from Envigo, NJ), 225 to 249 g, were used in the studies. Clevudine and ATI-2173 were administered by oral gavage (p.o.) in carboxyl methyl cellulose/PEG 400/Tween 20 (0.5%/20%/5%). The oral doses were administered at 25 mg/kg and 50 mg/kg, respectively. Blood samples were collected at 1, 2, 4, 6, 8, and 24 h into lithium-heparin microtainer tubes (BD). Plasma samples were prepared within 30 min after collection by centrifugation at 2,000× rcf for 10 min at 4°C and stored at –80°C before processing for analysis by liquid chromatography-tandem mass spectrometry (LC-MS/MS). Rat organs (skeletal muscle, liver, and heart) were collected from all rats immediately following blood collection at all time points. The tissues were immediately snap-frozen in liquid nitrogen and stored at –80°C before processing for analysis by LC-MS/MS. […]
Samples were maintained at 4°C in a Leap Pal Autosampler (CTC Analytics AG, Zwingen, Switzerland). Plasma concentrations of ATI-2173 and clevudine were determined using qualified methods with an assay range of 10 to 1,000 ng/ml. […] QCs were prepared at 30, 500, and 900 ng/ml and were measured within ± 30% of actual values. […]
Tissue levels were measured according to qualified LC-MS/MS methods with an assay range of 18 to 18,000 ng/g of tissue. […]

Series [6] deals with HBV genotype B (JN406371). Put plainly: microbe, parasite or virus in culture. The series is classed as cell-based. Particulars: Hepatitis B virus, HepG2.
The next series has as its system HK-2 human kidney cells. As to the kind of experiment: Cytotoxicity in HK-2 kidney cells (CellTiter-Glo). The note with it: up to 100 μM, 72 h. (Cellular ATP, detected with luciferase, serves as a proxy for viable cell number.)
A further series relates to HBV rtM204I. Put plainly: microbe, parasite or virus in culture. In kind it is cell-based. Particulars: Hepatitis B virus, HepG2.
The subject of another series is HBV rtA181V. As to the kind of experiment: microbe, parasite or virus in culture. The series is classed as cell-based. The note with it: Hepatitis B virus, HepG2.
The test system of a further series is HBV genotype D (U955551). As to the kind of experiment: microbe, parasite or virus in culture. The series is classed as cell-based. The note with it: Hepatitis B virus, HepG2.
The subject of another series is HBV rtS202G+M204I. As to the kind of experiment: microbe, parasite or virus in culture. The series is classed as cell-based. Particulars: Hepatitis B virus, HepG2.
Series [7] is described as follows: Cell viability (CC50) in primary human hepatocytes.
The subject of a further series is influenza virus. The series is classed as cell-based.
In series [8] the test system is human bone marrow mononuclear cells. Put plainly: Cytotoxicity in bone marrow mononuclear cells (CellTiter-Glo). The note with it: at 100 μM or greater, 72 h.
Method: HK-2 human kidney cells were obtained from ATCC (Manassas, VA) and cultured in Gibco Keratinocyte serum-free medium (Thermo Fisher Scientific, Waltham, MA) supplemented with 10% FBS (Peak Serum, Wellington, CO). Human skeletal muscle cells were obtained from Lonza (Walkersville, MD) and cultured in SkGM-2 skeletal muscle cell growth medium-2 (Lonza). Both HK-2 and skeletal muscle cells were cultured humidified at 37°C and 5% CO2. Cryopreserved human primary hepatocytes and medium were received from Lonza. Cryopreserved iCell cardiomyocytes and cardiomyocyte medium were purchased from Stem Cell Technologies (Vancouver, BC, Canada). Cryopreserved human bone marrow mononuclear cells were purchased from Lonza with HemaTox Myeloid medium purchased from [sequence] […] All cryopreserved cells (human primary hepatocytes, iCell cardiomyocytes, and human bone marrow mononuclear cells) were stored in vapor phase liquid nitrogen until the day of plating. […] Serial dilutions of compounds in DMSO were as follows: 100, 10, 1, 0.1, 0.01, 0.001, 0.0001, and 0.00001 μM (final concentration of DMSO in medium was 0.5%).
HK-2 and skeletal muscle cells were seeded into 96-well plates at 5,000 cells/well and incubated overnight at 37°C and 5% CO2. Human hepatocytes were thawed, diluted in hepatocyte plating medium (Lonza) and seeded into a 96-well, collagen-coated plates at 2.5 × 10^4 cells/well. Hepatocytes were incubated for 6 h at 37°C in 5% CO2, then the medium was aspirated and replaced with hepatocyte culture medium at 50 μl/well, and finally incubated overnight. The iCell cardiomyocytes were thawed, suspended in iCell thawing/plating medium, and plated at 4 × 10^4 cells/well in a gelatin-coated 96-well plate. iCells were incubated for 2 days at 37°C in 7% CO2. […]
(§1) Following incubation, cells were dosed and incubated for 72 h at 37°C and 5% CO2. Following incubation, the endpoint cell viability CellTiter-Glo 2.0 assay (Promega, San Luis Obispo, CA) was performed and luminescence data collected on a Synergy 4 plate reader (Biotek, Winooski, VT). […]
Series [9] relates to HBV genotype E (AB091255). As to the kind of experiment: microbe, parasite or virus in culture. The series is classed as cell-based. The note with it: Hepatitis B virus, HepG2.

Method for HK-2 human kidney cells: HK-2 human kidney cells were obtained from ATCC (Manassas, VA) and cultured in Gibco Keratinocyte serum-free medium (Thermo Fisher Scientific, Waltham, MA) supplemented with 10% FBS (Peak Serum, Wellington, CO). Human skeletal muscle cells were obtained from Lonza (Walkersville, MD) and cultured in SkGM-2 skeletal muscle cell growth medium-2 (Lonza). Both HK-2 and skeletal muscle cells were cultured humidified at 37°C and 5% CO2. Cryopreserved human primary hepatocytes and medium were received from Lonza. Cryopreserved iCell cardiomyocytes and cardiomyocyte medium were purchased from Stem Cell Technologies (Vancouver, BC, Canada). Cryopreserved human bone marrow mononuclear cells were purchased from Lonza with HemaTox Myeloid medium purchased from [sequence] […] All cryopreserved cells (human primary hepatocytes, iCell cardiomyocytes, and human bone marrow mononuclear cells) were stored in vapor phase liquid nitrogen until the day of plating. […] Serial dilutions of compounds in DMSO were as follows: 100, 10, 1, 0.1, 0.01, 0.001, 0.0001, and 0.00001 μM (final concentration of DMSO in medium was 0.5%). […]
as §1

As usually defined, the EC50 is the midpoint of the concentration-response curve. Usually CC50 stands for the concentration that lowers cell viability or growth by half. Regarding `Cc1cn(C2OC(COP(=O)(NC(C)C(=O)OC(C)C)Oc3ccccc3)C(O)C2F)c(=O)[nH]c1=O` (stereo not drawn) [ATI-2173], the concentration for a half-maximal effect (EC50) in the series with HBV rtL180M+M204V was over 10000 nM; in series [1], 230 nM; in series [2], 328 nM; in the series on HBV rtS202G+M204I+M250V, over 10000 nM; in the series on HBV coreP25A, 537 nM; in series [4] it was 227 nM. Further, the 50% effective concentration (EC50) with HBV rtN236T is 386 nM; with HBV wild type (U95551), 601 nM; in series [6], 212 nM; in the series with HBV rtM204I it was over 10000 nM; with HBV rtA181V it was over 10000 nM; in the series with HBV genotype D (U955551), 234 nM. The EC50 is over 10000 nM with HBV rtS202G+M204I and 427 nM in series [9]. This molecule returned a Hepatic extraction in series [3] of 82%. Further, the Antiviral efficacy result in the series on hepatitis C virus and with influenza virus was “no detectable efficacy” each time. The “Liver exposure to the 5′-triphosphate versus equimolar clevudine” value in series [5] is given as “nearly identical liver exposure”. The Cytotoxicity entry with HK-2 human kidney cells was “did not demonstrate any cytotoxicity”; in series [8] it was “Minimal cytotoxicity and mild”. This molecule also displayed a CC50 in series [7] of over 20 nM.
